In the supplement of paper PMC10307832:

Tests used:
Assay in all cases: relative viability (nuclei count vs DMSO), 5 days (fraction); higher = more cells survive
[1] = system: NCI-H2085
How it was run: (§1)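 Five library-drug doses in √10 steps were combined with a fixed anchor-drug dose, or a single drug was given alone, by pin tool to lung cancer cell lines in 1536-well plates the day after seeding. Nuclei were stained and counted after 5 days. Relative viability is the nuclei count in treated wells over that in vehicle wells, taken as the median of duplicate plates.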

[2] = system: 201T
How it was run: as §1

[3] = system: LU99A
How it was run: as §1

[4] = system: BEN
How it was run: as §1

[5] = system: HOP-62
How it was run: as §1

[6] = system: PC-3 [JPC-3]
How it was run: as §1

[7] = system: LCLC-97TM1
How it was run: as §1

[8] = system: NCI-H1666
How it was run: as §1

[9] = system: NCI-H1437
How it was run: as §1

[10] = system: EKVX
How it was run: as §1

[11] = system: NCI-H2087
How it was run: as §1

[12] = system: SW 1573
How it was run: as §1

[13] = system: NCI-H358
How it was run: as §1

[14] = system: NCI-H647
How it was run: as §1

[15] = system: H3255
How it was run: as §1

[16] = system: NCI-H2342
How it was run: as §1

[17] = system: LOU-NH91
How it was run: as §1

[18] = system: NCI-H1395
How it was run: as §1

[19] = system: COR-L 105
How it was run: as §1

[20] = system: NCI-H1975
How it was run: as §1

[21] = system: EPLC-272H
How it was run: as §1

[22] = system: HCC-827
How it was run: as §1

[23] = system: HCC-44
How it was run: as §1

SMILES: O=C(O)c1ccc(-c2c[nH]c3ncc(-c4ccccc4)cc23)cc1C1CCCC1 + CC(=O)c1c(C)c2cnc(Nc3ccc(N4CCNCC4)cn3)nc2n(C2CCCC2)c1=O [Palbociclib] (partner 0.5 µM)
- relative viability ([1]; first compound 0.04 µM): 0.448
- relative viability ([1]; first compound 0.1265 µM): 0.476
- relative viability ([1]; first compound 0.4 µM): 0.457
- relative viability ([1]; first compound 1.265 µM): 0.349
- relative viability ([2]; first compound 0.04 µM): 0.353
- relative viability ([2]; first compound 0.1265 µM): 0.364
- relative viability ([2]; first compound 0.4 µM): 0.341
- relative viability ([2]; first compound 1.265 µM): 0.364
- relative viability ([3]; first compound 0.04 µM): 0.43
- relative viability ([3]; first compound 0.1265 µM): 0.439
- relative viability ([3]; first compound 0.4 µM): 0.375
- relative viability ([3]; first compound 1.265 µM): 0.344
- relative viability ([4]; first compound 0.04 µM): 0.459
- relative viability ([4]; first compound 0.1265 µM): 0.422
- relative viability ([4]; first compound 0.4 µM): 0.455
- relative viability ([4]; first compound 1.265 µM): 0.454
- relative viability ([5]; first compound 0.04 µM): 0.426
- relative viability ([5]; first compound 0.1265 µM): 0.414
- relative viability ([5]; first compound 0.4 µM): 0.443
- relative viability ([5]; first compound 1.265 µM): 0.434
- relative viability ([6]; first compound 0.04 µM): 0.534
- relative viability ([6]; first compound 0.1265 µM): 0.553
- relative viability ([6]; first compound 0.4 µM): 0.538
- relative viability ([6]; first compound 1.265 µM): 0.499
- relative viability ([7]; first compound 0.04 µM): 0.267
- relative viability ([7]; first compound 0.1265 µM): 0.222
- relative viability ([7]; first compound 0.4 µM): 0.187
- relative viability ([7]; first compound 1.265 µM): 0.217
- relative viability ([8]; first compound 0.04 µM): 0.604
- relative viability ([8]; first compound 0.1265 µM): 0.622
- relative viability ([8]; first compound 0.4 µM): 0.609
- relative viability ([8]; first compound 1.265 µM): 0.547
- relative viability ([9]; first compound 0.04 µM): 0.326
- relative viability ([9]; first compound 0.1265 µM): 0.319
- relative viability ([9]; first compound 0.4 µM): 0.311
- relative viability ([9]; first compound 1.265 µM): 0.193
- relative viability ([10]; first compound 0.04 µM): 0.444
- relative viability ([10]; first compound 0.1265 µM): 0.379
- relative viability ([10]; first compound 0.4 µM): 0.233
- relative viability ([10]; first compound 1.265 µM): 0.362
- relative viability ([11]; first compound 0.04 µM): 0.214
- relative viability ([11]; first compound 0.1265 µM): 0.267
- relative viability ([11]; first compound 0.4 µM): 0.214
- relative viability ([11]; first compound 1.265 µM): 0.248
- relative viability ([12]; first compound 0.04 µM): 0.442
- relative viability ([12]; first compound 0.1265 µM): 0.355
- relative viability ([12]; first compound 0.4 µM): 0.309
- relative viability ([12]; first compound 1.265 µM): 0.268
- relative viability ([13]; first compound 0.04 µM): 0.128
- relative viability ([13]; first compound 0.1265 µM): 0.12
- relative viability ([13]; first compound 0.4 µM): 0.124
- relative viability ([13]; first compound 1.265 µM): 0.0876
- relative viability ([14]; first compound 0.04 µM): 0.399
- relative viability ([14]; first compound 0.1265 µM): 0.434
- relative viability ([14]; first compound 0.4 µM): 0.453
- relative viability ([14]; first compound 1.265 µM): 0.33
- relative viability ([15]; first compound 0.04 µM): 0.303
- relative viability ([15]; first compound 0.1265 µM): 0.325
- relative viability ([15]; first compound 0.4 µM): 0.286
- relative viability ([15]; first compound 1.265 µM): 0.312
- relative viability ([16]; first compound 0.04 µM): 0.465
- relative viability ([16]; first compound 0.1265 µM): 0.568
- relative viability ([16]; first compound 0.4 µM): 0.479
- relative viability ([16]; first compound 1.265 µM): 0.517
- relative viability ([17]; first compound 0.04 µM): 0.593
- relative viability ([17]; first compound 0.1265 µM): 0.517
- relative viability ([17]; first compound 0.4 µM): 0.525
- relative viability ([17]; first compound 1.265 µM): 0.469
- relative viability ([18]; first compound 0.04 µM): 0.567
- relative viability ([18]; first compound 0.1265 µM): 0.66
- relative viability ([18]; first compound 0.4 µM): 0.618
- relative viability ([18]; first compound 1.265 µM): 0.567
- relative viability ([19]; first compound 0.04 µM): 0.422
- relative viability ([19]; first compound 0.1265 µM): 0.392
- relative viability ([19]; first compound 0.4 µM): 0.349
- relative viability ([19]; first compound 1.265 µM): 0.411
- relative viability ([20]; first compound 0.04 µM): 0.588
- relative viability ([20]; first compound 0.1265 µM): 0.55
- relative viability ([20]; first compound 0.4 µM): 0.585
- relative viability ([20]; first compound 1.265 µM): 0.475
- relative viability ([21]; first compound 0.04 µM): 0.337
- relative viability ([21]; first compound 0.1265 µM): 0.332
- relative viability ([21]; first compound 0.4 µM): 0.321
- relative viability ([21]; first compound 1.265 µM): 0.294
- relative viability ([22]; first compound 0.04 µM): 0.354
- relative viability ([22]; first compound 0.1265 µM): 0.474
- relative viability ([22]; first compound 0.4 µM): 0.434
- relative viability ([22]; first compound 1.265 µM): 0.328
- relative viability ([23]; first compound 0.04 µM): 0.967
- relative viability ([23]; first compound 0.1265 µM): 0.938
- relative viability ([23]; first compound 0.4 µM): 0.875
- relative viability ([23]; first compound 1.265 µM): 0.805
